{"source": "patent US8936807B2", "about": "“Use of the cathelicidin LL-37 and derivatives thereof for wound healing” (Lipopeptide AB, priority 2003, dated 2015)", "key": {"[1]": {"assay": "Circular dichroism (CD) conformational measurements", "type": "physicochemical", "procedure": "(§1) Samples for circular dichroism (CD) measurements were prepared in 10 mM aqueous phosphate buffer solution, pH 7.0, containing 200 ppm LL-37 (as the trifluoroacetate, lot 971/26), with and without 0.40% CPL-Galactolipid. The samples, 20 ml in 50 ml glass flasks, were vigorously shaken with an ST mixer (type B1, E. Büchler, Tübingen) set at 7.5 (corresponding to an approximate frequency of 220/min) for 2 h. They were then allowed to equilibrate and settle over night at 2-8° C.\nCD spectra were recorded on a Jasco J-720 (Jasco Inc.) spectropolari-meter. The sample compartment with the cuvette cell (1 mm path length) was placed near the photomultiplier, in order to reduce effects of light scattering from the disper-sions. The samples were measured at room temperature and scanned from 280 to 200 nm at a rate of 20 nm/min, with a resolution of 1 nm and 3 accumulations per run. The results are expressed as the mean residue ellipticity, [θ], and the percentage of α-helical conformation at 222 nm is estimated by the following formula: ([θ]222+3900)·100/41900."}, "[2]": {"assay": "Storage of the CD samples for one month at 4° C.", "type": "physicochemical", "procedure": "as §1\nAn anionic synthetic phospholipid, palmitoyl-oleoyl-phosphatidylglycerol (POPG; Sigma-Aldrich, P6956) was used as a reference and tested using the same experimental conditions as described above."}, "HaCat cells [3]": {"test_system": "HaCat cells", "assay": "Proliferation of HaCat cells assessed by flowcytometry and Trypan-Blue", "type": "cell-based, human", "conditions": "for Increased Proliferation (%): vs baseline", "procedure": "HaCat cells were used for these experiments. HaCat cells are an immortalized human keratinocyte cell line (Boukamp et al., J Cell Biol 106:761-771, 1988), which is suitable for experimental keratinocyte research. HaCat cells were cultured in medium (DMEM, +10% FCS and PEST). Both types of cell cultures were treated with synthetic, bioactive LL-37 (lot YS 5253). […] Cells were harvested at different time-points (24 h, 48 h, 72 h and 96 h) and counted by flowcytometry (Becton-Dickinson) and stained by Trypan-Blue to evaluate viability. […] Proliferation and viability were also ascertained by measuring mitochondrial activity (WST-1, Roche, Cook et al. Anal Biochem 179:1-7, 1989)."}, "HaCat cells [4]": {"test_system": "HaCat cells", "assay": "Proliferation and viability of HaCat cells measured by mitochondrial activity (WST-1)", "type": "cell-based, human", "conditions": "LL-37 100 μg/ml, 10% serum, 48 h", "procedure": "HaCat cells were used for these experiments. HaCat cells are an immortalized human keratinocyte cell line (Boukamp et al., J Cell Biol 106:761-771, 1988), which is suitable for experimental keratinocyte research. HaCat cells were cultured in medium (DMEM, +10% FCS and PEST). Both types of cell cultures were treated with synthetic, bioactive LL-37 (lot YS 5253). In addition a mixture of LL-37 (114 μg/ml) and CPL-Galactolipid (0.2%) in medium containing serum at either 2 or 10% was added to evaluate the capacity to increase proliferation and inhibit cytotoxicity. Cells were harvested at different time-points (24 h, 48 h, 72 h and 96 h) and counted by flowcytometry (Becton-Dickinson) and stained by Trypan-Blue to evaluate viability. […] Proliferation and viability were also ascertained by measuring mitochondrial activity (WST-1, Roche, Cook et al. Anal Biochem 179:1-7, 1989)."}, "Human Wound Fibroblast": {"test_system": "Human Wound Fibroblast", "assay": "Proliferation and viability of human wound fibroblasts (WST-1)", "type": "cell-based", "conditions": "48 Hours; for Increased Proliferation (%): vs control", "excerpt": "(§2) The peptide LL-37 used in this and following tests was as described in Example 1 (lot 971/26). The fibroblasts, a type of stromal cells, were obtained from injured and uninjured skin in patients with chronic leg ulcers due to venous insufficiency. Punch-biopsies (4-mm) were taken from the wound margin including 50% of the epithelialized area and from uninjured skin in the knee region. Individuals with a history of diabetes mellitus, arterial insufficiency or chronic inflammatory disease were excluded. Patients with signs of eczema in the ulcer margin, clinical signs of infection or undergoing systemic or topical antibiotic treatment at the time for biopsy were also excluded. Patients included were all treated with inert local dressings and standard compression bandaging.\n(§3) Fibroblast were put in culture using explant technique (Hehenberger et al., Cell Biochem Funct 15:197-201, 1997). Fibroblasts were plated in 96 well plates (Falcon, USA) at the concentration of 2000 cells per well. Cells were plated at −48 hours and stimulated with different concentrations of synthetic LL-37 peptide by hour 0. The testing was done in one experiment with 6 wells in each condition. Proliferation and viability were ascertained by measuring mitochondrial activity (WST-1, Roche) after 24 h and 48 h. Increase in cell proliferation (Proliferation Index) is calculated in comparison with baseline (Control=0 μg/ml). Mean values from six samples per condition in one experiment are presented."}, "Human Normal Fibroblast": {"test_system": "Human Normal Fibroblast", "assay": "Proliferation and viability of human normal fibroblasts (WST-1)", "type": "cell-based", "conditions": "10% serum, 48 Hours; for Increased Proliferation (%): vs control", "excerpt": "as §2, §3"}, "[5]": {"conditions": "LL-37 25 μg/ml, 10% serum, 96 h"}, "[6]": {"conditions": "LL-37 50 μg/ml, 10% serum, 96 h"}, "[7]": {"conditions": "LL-37 100 μg/ml, 2% serum, 96 h"}, "[8]": {"conditions": "LL-37 100 μg/ml, 10% serum, 96 h"}, "[9]": {"conditions": "LL-37 100 μg/ml, no lipid, 2% serum, 72 h"}, "[10]": {"conditions": "LL-37 100 μg/ml, no lipid, 10% serum, 72 h"}, "[11]": {"conditions": "LL-37 100 μg/ml, with lipid 0.2%, 2% serum, 72 h"}, "[12]": {"conditions": "LL-37 100 μg/ml, with lipid 0.2%, 10% serum, 72 h"}, "[13]": {"conditions": "LL-37 25 μg/ml, no lipid, 10% serum"}, "[14]": {"conditions": "LL-37 50 μg/ml, no lipid, 10% serum"}, "[15]": {"conditions": "LL-37 100 μg/ml, no lipid, 10% serum"}, "[16]": {"conditions": "LL-37 100 μg/ml, with lipid 0.2%, 2% serum"}}}
{"sequence": "LLGDFFRKSKEKIGKEFKRIVQRIKDFLRNLVPRTES [LL-37]", "values": [{"measurement": "percentage α-helical structure", "setting": "[1]; 200 ppm LL-37 in 10 mM phosphate buffer, pH 7.0, from minimum at 222 nm", "value": "about 63%"}, {"measurement": "percentage α-helical structure", "setting": "[1]; 200 ppm LL-37 with 0.40% (w/w) galactolipid, 10 mM phosphate buffer pH 7.0", "value": "~64", "unit": "%"}, {"measurement": "percentage α-helical structure", "setting": "[1]; LL-37 with POPG (anionic phospholipid), same conditions", "value": 58, "unit": "%"}, {"measurement": "appearance after storage", "setting": "[2]; LL-37 with POPG", "value": "partially separated, with sediments on the bottom of the container"}, {"measurement": "appearance after storage", "setting": "[2]; LL-37 with galactolipid", "value": "redispersed to a fine dispersion by gentle agitation"}, {"measurement": "Number of Cells (Mean)", "setting": "HaCat cells [3]; LL-37 25 μg/ml, 2% serum, 96 h", "value": 32130}, {"measurement": "Trypan Blue + (%)", "setting": "HaCat cells [3]; LL-37 25 μg/ml, 2% serum, 96 h", "value": "<1", "unit": "%"}, {"measurement": "Increased Proliferation (%)", "setting": "HaCat cells [3]; LL-37 25 μg/ml, 2% serum, 96 h", "value": 0, "unit": "%"}, {"measurement": "Number of Cells (Mean)", "setting": "HaCat cells [3]; [5]", "value": 36470}, {"measurement": "Trypan Blue + (%)", "setting": "HaCat cells [3]; [5]", "value": "<1", "unit": "%"}, {"measurement": "Increased Proliferation (%)", "setting": "HaCat cells [3]; [5]", "value": 13, "unit": "%"}, {"measurement": "Number of Cells (Mean)", "setting": "HaCat cells [3]; LL-37 50 μg/ml, 2% serum, 96 h", "value": 53620}, {"measurement": "Trypan Blue + (%)", "setting": "HaCat cells [3]; LL-37 50 μg/ml, 2% serum, 96 h", "value": "30-50%"}, {"measurement": "Increased Proliferation (%)", "setting": "HaCat cells [3]; LL-37 50 μg/ml, 2% serum, 96 h", "value": "Cytotoxic effect"}, {"measurement": "Number of Cells (Mean)", "setting": "HaCat cells [3]; [6]", "value": 40950}, {"measurement": "Trypan Blue + (%)", "setting": "HaCat cells [3]; [6]", "value": "<1", "unit": "%"}, {"measurement": "Increased Proliferation (%)", "setting": "HaCat cells [3]; [6]", "value": 27, "unit": "%"}, {"measurement": "Number of Cells (Mean)", "setting": "HaCat cells [3]; [7]", "value": 15120}, {"measurement": "Trypan Blue + (%)", "setting": "HaCat cells [3]; [7]", "value": 100, "unit": "%"}, {"measurement": "Increased Proliferation (%)", "setting": "HaCat cells [3]; [7]", "value": "Cytotoxic effect"}, {"measurement": "cytotoxic effect when lipid was added (in words)", "setting": "HaCat cells [3]; LL-37 100 μg/ml, 2% serum, lipid added", "value": "completely abolished"}, {"measurement": "Number of Cells (Mean)", "setting": "HaCat cells [3]; [8]", "value": 66430}, {"measurement": "Trypan Blue + (%)", "setting": "HaCat cells [3]; [8]", "value": "<1", "unit": "%"}, {"measurement": "Increased Proliferation (%)", "setting": "HaCat cells [3]; [8]", "value": 100, "unit": "%"}, {"measurement": "Trypan Blue staining (in words)", "setting": "HaCat cells [3]; LL-37 100 μg/ml, medium containing 2% FCS", "value": "all of the keratinocytes became positive with Trypan Blue staining"}, {"measurement": "Number of Cells (Mean)", "setting": "HaCat cells [3]; [9]", "value": 150500}, {"measurement": "Trypan Blue + (%)", "setting": "HaCat cells [3]; [9]", "value": 100, "unit": "%"}, {"measurement": "Increased Proliferation (%)", "setting": "HaCat cells [3]; [9]", "value": "Cytotoxic effect"}, {"measurement": "Number of Cells (Mean)", "setting": "HaCat cells [3]; [10]", "value": 88853}, {"measurement": "Trypan Blue + (%)", "setting": "HaCat cells [3]; [10]", "value": "<1", "unit": "%"}, {"measurement": "Increased Proliferation (%)", "setting": "HaCat cells [3]; [10]", "value": 61, "unit": "%"}, {"measurement": "Number of Cells (Mean)", "setting": "HaCat cells [3]; [11]", "value": 87360}, {"measurement": "Trypan Blue + (%)", "setting": "HaCat cells [3]; [11]", "value": "<1", "unit": "%"}, {"measurement": "Increased Proliferation (%)", "setting": "HaCat cells [3]; [11]", "value": 58, "unit": "%"}, {"measurement": "Number of Cells (Mean)", "setting": "HaCat cells [3]; [12]", "value": 91980}, {"measurement": "Trypan Blue + (%)", "setting": "HaCat cells [3]; [12]", "value": "<1", "unit": "%"}, {"measurement": "Increased Proliferation (%)", "setting": "HaCat cells [3]; [12]", "value": 66, "unit": "%"}, {"measurement": "proliferation of HaCat cells (in words)", "setting": "HaCat cells [3]; LL-37 25-100 μg/ml, media with 10% FCS", "value": "increases proliferation in a concentration-dependent manner"}, {"measurement": "Absorbance", "setting": "HaCat cells [4]", "value": 1.110}, {"measurement": "Trypan Blue + (%)", "setting": "HaCat cells [4]", "value": "<1", "unit": "%"}, {"measurement": "Increased Proliferation (%)", "setting": "HaCat cells [4]; vs baseline", "value": 78, "unit": "%"}, {"measurement": "Absorbance", "setting": "Human Wound Fibroblast; [13]", "value": 1.171}, {"measurement": "Increased Proliferation (%)", "setting": "Human Wound Fibroblast; [13]", "value": 49, "unit": "%"}, {"measurement": "Absorbance", "setting": "Human Wound Fibroblast; [14]", "value": 1.073}, {"measurement": "Increased Proliferation (%)", "setting": "Human Wound Fibroblast; [14]", "value": 37, "unit": "%"}, {"measurement": "Absorbance", "setting": "Human Wound Fibroblast; [15]", "value": 0.955}, {"measurement": "Increased Proliferation (%)", "setting": "Human Wound Fibroblast; [15]", "value": 22, "unit": "%"}, {"measurement": "Absorbance", "setting": "Human Wound Fibroblast; [16]", "value": 0.960}, {"measurement": "Increased Proliferation (%)", "setting": "Human Wound Fibroblast; [16]", "value": 22, "unit": "%"}, {"measurement": "Absorbance", "setting": "Human Normal Fibroblast; LL-37 25 μg/ml", "value": 0.597}, {"measurement": "Increased Proliferation (%)", "setting": "Human Normal Fibroblast; LL-37 25 μg/ml", "value": 7, "unit": "%"}, {"measurement": "Absorbance", "setting": "Human Normal Fibroblast; LL-37 50 μg/ml", "value": 0.626}, {"measurement": "Increased Proliferation (%)", "setting": "Human Normal Fibroblast; LL-37 50 μg/ml", "value": 12, "unit": "%"}, {"measurement": "Absorbance", "setting": "Human Normal Fibroblast; LL-37 100 μg/ml", "value": 0.669}, {"measurement": "Increased Proliferation (%)", "setting": "Human Normal Fibroblast; LL-37 100 μg/ml", "value": 19, "unit": "%"}]}
